How the values were obtained:
[1] = system: colon cancer cells (HCT116); assay: Cancer cell line growth inhibition (SRB assay); assay type: cell-based; settings: Homo sapiens, HCT-116; HCT116 colon cancer cells, SRB assay; read-out: Cancer Cell Line GI50 Range HCT116
[2] = system: ovarian cancer cells (PA-1); assay: Cancer cell line growth inhibition (SRB assay); assay type: cell-based; settings: PA-1 ovarian cancer cells, SRB assay; read-out: Cancer Cell Line GI50 Range PA-1

Structure (SMILES) | GI50 [1] | GI50 [2]
CCc1cccc(CC)c1NC(=O)Nc1ccc2[nH]nc(-c3ccc4c(c3)CN(C)CCO4)c2c1 [Example A114, 1-(2,6-diethylphenyl)-3-(3-(4-methyl-2,3,4,5-tetrahydrobenzo[f][1,4]oxazepin-7-yl)-1H-indazol-5-yl)urea] | > 500 nM | > 500 nM
COC1CCN(c2ccc(-c3n[nH]c4ccc(NC(=O)C(c5ccsc5)N5CCCC5)cc34)cc2)CC1 (centres unmarked) [Example A116, N-(3-(4-(4-methoxypiperidin-1-yl)phenyl)-1H-indazol-5-yl)-2-(pyrrolidin-1-yl)-2-(thiophen-3-yl)acetamide] | 100 to 500 nM | 100 to 500 nM
Cc1ccccc1C(NC(=O)c1ccc2[nH]nc(-c3ccc(N4CCOCC4)cc3)c2c1)C1CC1 (centres unmarked) [Example A119, N-(cyclopropyl(o-tolyl)methyl)-3-(4-morpholinophenyl)-1H-indazole-5-carboxamide] | 100 to 500 nM | 100 to 500 nM
O=C(Nc1ccc2[nH]nc(-c3ccc(N4CC(O)C4)cc3)c2c1)C(c1ccsc1)N1CCCC1 (centres unmarked) [Example A120, N-(3-(4-(3-Hydroxyazetidin-1-yl)phenyl)-1H-indazol-5-yl)-2-(pyrrolidin-1-yl)-2-(thiophen-3-yl)acetamide] | < 100 nM | < 100 nM
O=C(NC(c1ccsc1)C1CCC1)c1ccc2[nH]nc(-c3ccc(N4CCOCC4)cc3)c2c1 (centres unmarked) [Example A123, N-(cyclobutyl(thiophen-3-yl)methyl)-3-(4-morpholinophenyl)-1H-indazole-5-carboxamide] | 100 to 500 nM | < 100 nM
CCc1cccc(CC)c1NC(=O)Nc1ccc2[nH]nc(-c3ccc(C4CN(C)CCO4)cc3)c2c1 (centres unmarked) [Example A124, 1-(2,6-diethylphenyl)-3-(3-(4-(4-methylmorpholin-2-yl)phenyl)-1H-indazol-5-yl)urea] | 100 to 500 nM | 100 to 500 nM
CN1CCOC(c2ccc(-c3n[nH]c4ccc(C(=O)NC(c5ccccc5)C5CC5)cc34)cc2)C1 (centres unmarked) [Example A139, N-(cyclopropyl(phenyl)methyl)-3-(4-(4-methylmorpholin-2-yl)phenyl)-1H-indazole-5-carboxamide] | 100 to 500 nM | 100 to 500 nM
O=C(NC(c1ccccc1)C1CC1)c1ccc2[nH]nc(-c3ccc(OCCN4CCOCC4)cc3)c2c1 (centres unmarked) [Example A140, N-(cyclopropyl(phenyl)methyl)-3-(4-(2-morpholinoethoxy)phenyl)-1H-indazole-5-carboxamide] | 100 to 500 nM | 100 to 500 nM
Cc1ccccc1C(NC(=O)c1ccc2[nH]nc(-c3ccc(N4CC(O)C4)cc3)c2c1)C1CC1 (centres unmarked) [Example A141, N-(cyclopropyl(o-tolyl)methyl)-3-(4-(3-hydroxyazetidin-1-yl)phenyl)-1H-indazole-5-carboxamide] | 100 to 500 nM | 100 to 500 nM
CO[C@@H](C(=O)Nc1ccc2[nH]nc(-c3ccc(OCC4CCN(C)CC4)cc3)c2c1)c1ccccc1 [Example A145, (R)-2-methoxy-N-(3-(4-((1-methylpiperidin-4-yl)methoxy)phenyl)-1H-indazol-5-yl)-2-phenylacetamide] | 100 to 500 nM | 100 to 500 nM
CN1CCC(Oc2ccc(-c3n[nH]c4ccc(NC(=O)C5OCCc6ccccc65)cc34)cc2)CC1 (centres unmarked) [Example A146, N-(3-(4-(1-Methylpiperidin-4-yloxy)phenyl)-1H-indazol-5-yl)isochroman-1-carboxamide] | > 500 nM | 100 to 500 nM
CC[C@@H](NC(=O)c1ccc2[nH]nc(-c3ccc(OC4CCN(C5COC5)CC4)cc3)c2c1)c1ccccc1Cl [Example A192, (R)-N-(1-(2-chlorophenyl)propyl)-3-(4-((1-(oxetan-3-yl)piperidin-4-yl)oxy)phenyl)-1H-indazole-5-carboxamide] | 100 to 500 nM | 100 to 500 nM
COc1cc(-c2n[nH]c3ccc(C(=O)NC(c4ccccc4)C4CC4)cc23)ccc1OC1CCN(C2COC2)CC1 (centres unmarked) [Example A194, N-(cyclopropyl(phenyl)methyl)-3-(3-methoxy-4-((1-(oxetan-3-yl)piperidin-4-yl)oxy)phenyl)-1H-indazole-5-carboxamide] | 100 to 500 nM | 100 to 500 nM
COc1cc(-c2n[nH]c3ccc(C(=O)NC(c4ccccn4)C4CC4)cc23)ccc1OC1CCN(C2COC2)CC1 (centres unmarked) [Example A195, N-(cyclopropyl(pyridin-2-yl)methyl)-3-(3-methoxy-4-((1-(oxetan-3-yl)piperidin-4-yl)oxy)phenyl)-1H-indazole-5-carboxamide] | 100 to 500 nM | 100 to 500 nM
O=C(N[C@@H](c1ccccn1)C1CC1)c1ccc2[nH]nc(-c3ccc(OC4CCN(C5COC5)CC4)cc3)c2c1 [Example A196, (R)-N-(cyclopropyl(pyridin-2-yl)methyl)-3-(4-((1-(oxetan-3-yl)piperidin-4-yl)oxy)phenyl)-1H-indazole-5-carboxamide] | < 100 nM | < 100 nM
O=CN1CCC(Oc2ccc(-c3n[nH]c4ccc(C(=O)N[C@@H](c5ccccn5)C5CC5)cc34)cc2)CC1 [Example A203, (R)-N-(cyclopropyl(pyridin-2-yl)methyl)-3-(4-((1-formylpiperidin-4-yl)oxy)phenyl)-1H-indazole-5-carboxamide] | 100 to 500 nM | 100 to 500 nM
COc1cc(-c2n[nH]c3ccc(C(=O)NC(c4ccccc4)C4CC4)cc23)ccc1OC1CCN(C=O)CC1 (centres unmarked) [Example A205, N-(cyclopropyl(phenyl)methyl)-3-(4-((1-formylpiperidin-4-yl)oxy)-3-methoxyphenyl)-1H-indazole-5-carboxamide] | 100 to 500 nM | 100 to 500 nM
COc1cc(-c2n[nH]c3ccc(C(=O)NC(c4ccccn4)C4CC4)cc23)ccc1OC1CCN(C=O)CC1 (centres unmarked) [Example A206, N-(cyclopropyl(pyridin-2-yl)methyl)-3-(4-((1-formylpiperidin-4-yl)oxy)-3-methoxyphenyl)-1H-indazole-5-carboxamide] | 100 to 500 nM | 100 to 500 nM
O=C(NC(c1ccccn1)C1CC1)c1ccc2[nH]nc(-c3ccc(OC4CN(C5COC5)C4)cc3)c2c1 (centres unmarked) [Example A209, N-(cyclopropyl(pyridin-2-yl)methyl)-3-(4-((1-(oxetan-3-yl)azetidin-3-yl)oxy)phenyl)-1H-indazole-5-carboxamide] | 100 to 500 nM | 100 to 500 nM

Further lines, results first:

GI50 [1] | GI50 [2] | Structure (SMILES)
< 100 nM | < 100 nM | CN1CCC(Oc2ccc(-c3n[nH]c4ccc(C(=O)NC(c5ccsc5)C5CCC5)cc34)cc2)CC1 (centres unmarked) [Example A121, N-(cyclobutyl(thiophen-3-yl)methyl)-3-(4-((1-methylpiperidin-4-yl)oxy)phenyl)-1H-indazole-5-carboxamide]
100 to 500 nM | 100 to 500 nM | O=C(NC(c1ccccc1)C1CC1)c1ccc2[nH]nc(-c3ccc(OC4CCN(CCF)CC4)cc3)c2c1 (centres unmarked) [Example A122, N-(cyclopropyl(phenyl)methyl)-3-(4-((1-(2-fluoroethyl)piperidin-4-yl)oxy)phenyl)-1H-indazole-5-carboxamide]
100 to 500 nM | 100 to 500 nM | CN1CCC(Oc2ccc(-c3n[nH]c4ccc(C(=O)N[C@@H](CCO)c5ccccc5)cc34)cc2)CC1 [Example A125, (S)-N-(3-hydroxy-1-phenylpropyl)-3-(4-((1-methylpiperidin-4-yl)oxy)phenyl)-1H-indazole-5-carboxyamide]
100 to 500 nM | 100 to 500 nM | O=CN1CCC(Oc2ccc(-c3n[nH]c4ccc(C(=O)NC(c5ccccc5)C5CC5)cc34)cc2)CC1 (centres unmarked) [Example A126, N-(cyclopropyl(phenyl)methyl)-3-(4-((1-formylpiperidin-4-yl)oxy)phenyl)-1H-indazole-5-carboxamide]
100 to 500 nM | > 500 nM | CN1CCC(Oc2ccc(-c3n[nH]c4ccc(C(=O)NCc5ccccc5CO)cc34)cc2)CC1 [Example A142, N-(2-(hydroxymethyl)benzyl)-3-(4-((1-methylpiperidin-4-yl)oxy)phenyl)-1H-indazole-5-carboxamide]
100 to 500 nM | 100 to 500 nM | Cc1ccccc1C(NC(=O)c1ccc2[nH]nc(-c3ccc(OC4CCN(C)CC4)cc3)c2c1)C(C)C (centres unmarked) [Example A143, N-(2-methyl-1-(o-tolyl)propyl)-3-(4-((1-methylpiperidin-4-yl)oxy)phenyl)-1H-indazole-5-carboxamide]
100 to 500 nM | 100 to 500 nM | CCC(NC(=O)c1ccc2[nH]nc(-c3ccc(OC4CCN(CCOC)CC4)cc3)c2c1)c1ccccc1 (centres unmarked) [Example A153, 3-(4-((1-(2-methoxyethyl)piperidin-4-yl)oxy)phenyl)-N-(1-phenylpropyl)-1H-indazole-5-carboxamide]
100 to 500 nM | 100 to 500 nM | CN(C)C(=O)CN1CCC(Oc2ccc(-c3n[nH]c4ccc(C(=O)NC(c5ccccc5)C5CC5)cc34)cc2)CC1 (centres unmarked) [Example A158, N-(cyclopropyl(phenyl)methyl)-3-(4-((1-(2-(dimethylamino)-2-oxoethyl)piperidin-4-yl)oxy)phenyl)-1H-indazole-5-carboxamide]
100 to 500 nM | 100 to 500 nM | COCCN1CCC(Oc2ccc(-c3n[nH]c4ccc(C(=O)NC(c5ccccc5)C5CCCC5)cc34)cc2)CC1 (centres unmarked) [Example A161, N-(cyclopentyl(phenyl)methyl)-3-(4-((1-(2-methoxyethyl)piperidin-4-yl)oxy)phenyl)-1H-indazole-5-carboxamide]
100 to 500 nM | 100 to 500 nM | COCCN1CCC(Oc2ccc(-c3n[nH]c4ccc(C(=O)N[C@H](COC)c5ccccc5)cc34)cc2)CC1 [Example A164, (S)-N-(2-methoxy-1-phenylethyl)-3-(4-((1-(2-methoxyethyl)piperidin-4-yl)oxy)phenyl)-1H-indazole-5-carboxamide]
100 to 500 nM | 100 to 500 nM | CN1CCC(Oc2ccc(-c3n[nH]c4ccc(C(=O)NC(c5ccccc5Cl)C5CCCC5)cc34)cc2)CC1 (centres unmarked) [Example A199, N-((2-chlorophenyl)(cyclopentyl)methyl)-3-(4-((1-methylpiperidin-4-yl)oxy)phenyl)-1H-indazole-5-carboxamide]
100 to 500 nM | 100 to 500 nM | CN1CCC(Oc2ccc(-c3n[nH]c4ccc(C(=O)NCC(c5ccccc5)C5CCCC5)cc34)cc2)CC1 (centres unmarked) [Example A207, N-(2-cyclopentyl-2-phenylethyl)-3-(4-((1-methylpiperidin-4-yl)oxy)phenyl)-1H-indazole-5-carboxamide]
